Results reported in ChEMBL document CHEMBL1201862, “PubChem BioAssay data set” (2004).
Activity calls are given as the source filed them.

Tests used:
[1] = molecular target: T1, Microphthalmia-associated transcription factor (Homo sapiens, UniProt O75030); test: TRPM1 promoter luciferase signal decrease, dose response, MITF inhibitor project, cell-based, SK-MEL-5, cherry-picked, set 3 (AID 493073); assay type: functional
T1 sequence (O75030 whole entry): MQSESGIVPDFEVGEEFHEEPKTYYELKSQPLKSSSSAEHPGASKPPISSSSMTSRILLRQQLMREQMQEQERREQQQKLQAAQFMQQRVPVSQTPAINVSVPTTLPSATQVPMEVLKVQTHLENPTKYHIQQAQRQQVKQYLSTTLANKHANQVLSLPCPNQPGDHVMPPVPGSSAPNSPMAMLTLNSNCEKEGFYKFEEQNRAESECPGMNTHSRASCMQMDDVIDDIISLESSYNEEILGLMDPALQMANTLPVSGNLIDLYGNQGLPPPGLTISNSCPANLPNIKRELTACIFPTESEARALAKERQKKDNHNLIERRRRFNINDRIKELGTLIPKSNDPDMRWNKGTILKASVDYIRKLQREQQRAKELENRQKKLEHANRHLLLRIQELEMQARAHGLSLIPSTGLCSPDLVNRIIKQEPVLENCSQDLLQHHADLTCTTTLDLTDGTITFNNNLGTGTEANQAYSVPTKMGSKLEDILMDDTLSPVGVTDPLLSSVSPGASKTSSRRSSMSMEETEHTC

A-375 [2] = test: A375 melanoma cell viability reduction, dose response, counter-screen for MITF modulator project, cherry-pick samples, set 2 (AID 540335); assay type: functional, cell-based; settings: Homo sapiens
[3] = molecular target: FAD-linked sulfhydryl oxidase ALR (Homo sapiens, UniProt P55789); test: inhibitors of human ALR sulfhydryl oxidase, dose response, biochemical, H2O2 detection, luminescence, cherry-pick (AID 493248)
FAD-linked sulfhydryl oxidase ALR, sequence (P55789 whole entry): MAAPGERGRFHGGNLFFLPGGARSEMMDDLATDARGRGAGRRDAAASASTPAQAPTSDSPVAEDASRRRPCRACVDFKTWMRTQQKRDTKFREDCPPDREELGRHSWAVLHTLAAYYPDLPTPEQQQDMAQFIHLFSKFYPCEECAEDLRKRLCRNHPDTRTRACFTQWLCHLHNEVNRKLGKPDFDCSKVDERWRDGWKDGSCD

Large T antigen = Large T antigen (Simian virus 40, UniProt P03070); assay type: functional, Betapolyomavirus macacae;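 further: Confirmatory-stage PubChem screen for compounds that inhibit SV40 T antigen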
Large T antigen, sequence (P03070 whole entry): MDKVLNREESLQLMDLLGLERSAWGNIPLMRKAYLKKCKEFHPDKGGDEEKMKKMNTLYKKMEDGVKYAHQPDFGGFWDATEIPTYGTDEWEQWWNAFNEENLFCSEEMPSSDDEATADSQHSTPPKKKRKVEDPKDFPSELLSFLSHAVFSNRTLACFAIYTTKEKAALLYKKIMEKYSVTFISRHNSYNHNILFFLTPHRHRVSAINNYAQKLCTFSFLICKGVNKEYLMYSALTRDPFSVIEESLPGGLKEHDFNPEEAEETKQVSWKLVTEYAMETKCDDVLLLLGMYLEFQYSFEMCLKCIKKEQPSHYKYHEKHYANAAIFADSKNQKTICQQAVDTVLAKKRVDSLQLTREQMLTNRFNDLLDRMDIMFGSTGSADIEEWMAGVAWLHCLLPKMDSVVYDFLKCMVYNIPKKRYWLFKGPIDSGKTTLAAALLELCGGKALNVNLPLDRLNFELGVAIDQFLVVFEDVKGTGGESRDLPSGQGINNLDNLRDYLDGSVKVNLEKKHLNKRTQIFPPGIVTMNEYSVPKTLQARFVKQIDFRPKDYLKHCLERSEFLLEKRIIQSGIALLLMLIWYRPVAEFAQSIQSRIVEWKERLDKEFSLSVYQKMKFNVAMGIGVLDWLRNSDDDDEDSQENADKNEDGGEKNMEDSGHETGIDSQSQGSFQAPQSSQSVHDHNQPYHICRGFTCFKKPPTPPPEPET

A-375 [4] = test: MITF: Counter assay: A375 proliferation Measured in Cell-Based System Using Plate Reader - 2084-03_Inhibitor_Dose_DryPowder_Activity. [Related pubchem assays (depositor defined):AID488944]; assay type: functional; settings: Homo sapiens
[5] = molecular target: Beta-adrenergic receptor kinase 1 (Homo sapiens, UniProt P25098); test: GRK2 inhibitors displacing RNA aptamer, dose response, biochemical, flow cytometry beads, FAM-aptamer, powder set 1 (AID 588720)
Beta-adrenergic receptor kinase 1, sequence (P25098 whole entry): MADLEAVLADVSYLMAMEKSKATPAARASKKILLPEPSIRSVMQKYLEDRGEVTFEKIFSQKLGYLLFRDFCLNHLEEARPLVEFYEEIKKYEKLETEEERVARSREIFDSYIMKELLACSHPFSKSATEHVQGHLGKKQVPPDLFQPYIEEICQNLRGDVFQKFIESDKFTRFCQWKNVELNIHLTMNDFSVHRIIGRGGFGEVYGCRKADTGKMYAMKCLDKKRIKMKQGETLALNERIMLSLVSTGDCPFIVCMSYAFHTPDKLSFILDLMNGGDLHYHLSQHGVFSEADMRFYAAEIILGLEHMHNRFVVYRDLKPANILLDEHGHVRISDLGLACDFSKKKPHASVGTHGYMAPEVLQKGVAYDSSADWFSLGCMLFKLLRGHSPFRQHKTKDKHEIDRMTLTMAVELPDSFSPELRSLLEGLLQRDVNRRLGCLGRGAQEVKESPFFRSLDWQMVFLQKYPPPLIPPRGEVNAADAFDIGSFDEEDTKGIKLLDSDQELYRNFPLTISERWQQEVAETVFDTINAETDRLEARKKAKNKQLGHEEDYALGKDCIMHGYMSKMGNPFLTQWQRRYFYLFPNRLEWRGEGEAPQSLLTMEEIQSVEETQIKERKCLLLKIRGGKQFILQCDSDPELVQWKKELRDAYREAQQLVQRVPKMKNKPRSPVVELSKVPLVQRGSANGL

[6] = molecular target: T2, Dual specificity protein phosphatase 6 (Rattus norvegicus, UniProt Q64346); assay type: functional
T2 sequence (Q64346 whole entry): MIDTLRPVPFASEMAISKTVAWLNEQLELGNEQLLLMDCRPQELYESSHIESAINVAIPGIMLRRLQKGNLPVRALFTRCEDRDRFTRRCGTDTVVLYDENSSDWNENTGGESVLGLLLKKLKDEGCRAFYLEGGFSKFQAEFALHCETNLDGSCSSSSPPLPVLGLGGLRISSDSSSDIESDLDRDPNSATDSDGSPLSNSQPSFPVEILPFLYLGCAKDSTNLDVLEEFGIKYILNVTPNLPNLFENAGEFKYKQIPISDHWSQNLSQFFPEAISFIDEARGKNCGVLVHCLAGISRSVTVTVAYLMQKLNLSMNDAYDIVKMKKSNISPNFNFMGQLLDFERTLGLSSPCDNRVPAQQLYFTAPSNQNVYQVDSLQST

[7] = molecular target: T3, Tyrosine-protein phosphatase non-receptor type 7 (Homo sapiens, UniProt P35236); assay type: functional
T3 sequence (P35236 whole entry): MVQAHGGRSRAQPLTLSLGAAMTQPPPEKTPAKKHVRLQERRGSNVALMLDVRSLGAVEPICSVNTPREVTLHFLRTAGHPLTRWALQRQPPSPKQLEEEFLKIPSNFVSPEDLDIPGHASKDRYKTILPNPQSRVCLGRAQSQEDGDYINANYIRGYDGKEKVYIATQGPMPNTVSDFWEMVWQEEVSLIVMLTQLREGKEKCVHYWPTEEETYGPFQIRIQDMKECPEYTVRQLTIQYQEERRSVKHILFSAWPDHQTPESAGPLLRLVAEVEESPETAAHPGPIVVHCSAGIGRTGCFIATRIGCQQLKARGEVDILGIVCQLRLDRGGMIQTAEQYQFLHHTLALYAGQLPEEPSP

[8] = molecular target: Glyceraldehyde-3-phosphate dehydrogenase (Homo sapiens, UniProt P04406)
Glyceraldehyde-3-phosphate dehydrogenase, sequence (P04406 whole entry): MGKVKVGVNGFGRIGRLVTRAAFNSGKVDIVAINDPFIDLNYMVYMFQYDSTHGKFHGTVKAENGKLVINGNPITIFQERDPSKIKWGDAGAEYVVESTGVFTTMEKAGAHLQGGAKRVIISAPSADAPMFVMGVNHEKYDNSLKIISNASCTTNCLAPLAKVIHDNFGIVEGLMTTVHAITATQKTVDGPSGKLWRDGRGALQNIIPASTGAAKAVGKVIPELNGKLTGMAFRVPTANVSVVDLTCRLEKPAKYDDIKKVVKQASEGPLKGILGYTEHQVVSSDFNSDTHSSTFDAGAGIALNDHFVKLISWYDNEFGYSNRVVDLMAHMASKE

[9] = molecular target: T2, Dual specificity protein phosphatase 6
[10] = molecular target: T4, Short transient receptor potential channel 4 (Mus musculus, UniProt Q9QUQ5); test: mouse TRPC4 channel activators, dose response, cell-based, HEK293 TRPC4/mu-opioid, Fluo-4 calcium (AID 434937); assay type: functional
T4 sequence (Q9QUQ5 whole entry): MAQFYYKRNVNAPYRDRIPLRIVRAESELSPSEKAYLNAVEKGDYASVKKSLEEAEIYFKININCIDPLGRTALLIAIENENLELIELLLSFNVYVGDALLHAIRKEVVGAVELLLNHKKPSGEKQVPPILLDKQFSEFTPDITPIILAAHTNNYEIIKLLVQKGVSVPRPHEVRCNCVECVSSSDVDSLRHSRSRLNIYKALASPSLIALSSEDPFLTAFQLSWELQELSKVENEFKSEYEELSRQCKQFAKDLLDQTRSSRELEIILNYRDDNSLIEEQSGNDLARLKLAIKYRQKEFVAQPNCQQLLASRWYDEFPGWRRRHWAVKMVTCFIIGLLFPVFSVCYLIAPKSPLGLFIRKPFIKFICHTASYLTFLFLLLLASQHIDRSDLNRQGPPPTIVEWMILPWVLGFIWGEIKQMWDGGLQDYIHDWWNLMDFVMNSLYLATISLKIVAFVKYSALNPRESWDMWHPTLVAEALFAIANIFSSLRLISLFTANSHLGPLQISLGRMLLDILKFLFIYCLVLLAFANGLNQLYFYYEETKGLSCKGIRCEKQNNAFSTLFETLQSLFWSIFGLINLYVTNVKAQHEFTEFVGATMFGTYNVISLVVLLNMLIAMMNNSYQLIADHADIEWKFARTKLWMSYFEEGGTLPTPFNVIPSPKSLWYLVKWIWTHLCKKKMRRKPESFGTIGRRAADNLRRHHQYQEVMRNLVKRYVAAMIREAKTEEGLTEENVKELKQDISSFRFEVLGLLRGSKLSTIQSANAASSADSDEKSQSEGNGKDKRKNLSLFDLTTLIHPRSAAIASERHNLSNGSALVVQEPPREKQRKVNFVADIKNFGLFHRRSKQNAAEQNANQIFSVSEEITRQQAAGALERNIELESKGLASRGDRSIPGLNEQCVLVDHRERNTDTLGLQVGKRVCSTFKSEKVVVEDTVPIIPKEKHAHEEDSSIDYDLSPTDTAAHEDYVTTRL

Mu-type opioid receptor = Mu-type opioid receptor (Homo sapiens, UniProt P35372); test: (§1) Counterscreen for agonists of heterodimerization of the mu 1 (OPRM1) and delta 1 (OPRD1) opioid receptors: Luminescence-based cell-based high throughput dose response assay to identify agonists of OPRM1 homodimerization.; assay type: functional
Mu-type opioid receptor, sequence (P35372 whole entry): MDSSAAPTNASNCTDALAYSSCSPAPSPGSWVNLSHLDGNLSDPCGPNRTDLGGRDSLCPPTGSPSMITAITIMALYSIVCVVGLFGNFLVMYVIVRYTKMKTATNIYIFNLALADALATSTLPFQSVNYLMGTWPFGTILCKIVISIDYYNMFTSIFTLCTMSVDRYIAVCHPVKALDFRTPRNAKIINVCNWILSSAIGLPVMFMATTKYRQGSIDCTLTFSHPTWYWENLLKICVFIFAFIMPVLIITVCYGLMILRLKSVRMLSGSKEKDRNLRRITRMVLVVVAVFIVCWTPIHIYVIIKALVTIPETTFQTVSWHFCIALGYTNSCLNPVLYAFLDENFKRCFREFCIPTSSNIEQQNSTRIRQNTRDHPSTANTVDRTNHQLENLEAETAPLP

[11] = molecular target: 5-hydroxytryptamine receptor 5A (Homo sapiens, UniProt P47898); test: Counterscreen for agonists of OPRM1-OPRD1 heterodimerization: luminescence-based cell-based high throughput dose response assay to identify agonists of 5-hydroxytryptamine (serotonin) 5A receptor (HTR5A). [Related pubchem assays (depositor defined):AID504326, AID504355, AID504692, AID504904, AID504905]; assay type: functional
5-hydroxytryptamine receptor 5A, sequence (P47898 whole entry): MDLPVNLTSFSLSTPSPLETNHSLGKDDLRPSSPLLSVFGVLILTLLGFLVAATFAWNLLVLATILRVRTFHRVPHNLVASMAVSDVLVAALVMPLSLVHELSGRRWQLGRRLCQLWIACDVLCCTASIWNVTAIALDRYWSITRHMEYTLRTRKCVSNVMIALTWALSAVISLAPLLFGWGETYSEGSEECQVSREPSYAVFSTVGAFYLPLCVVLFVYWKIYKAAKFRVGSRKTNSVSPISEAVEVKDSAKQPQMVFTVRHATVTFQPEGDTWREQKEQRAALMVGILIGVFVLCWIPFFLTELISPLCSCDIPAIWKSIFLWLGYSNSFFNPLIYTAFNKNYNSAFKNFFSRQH

[12] = molecular target: Delta-type opioid receptor (Homo sapiens, UniProt P41143); test: as §1, with “of OPRD1” for “of OPRM1”, “homodimerization. [Related pubchem assays (depositor defined):AID504326, AID504355, AID504692, AID504904, AID504905]” for “homodimerization.”; assay type: functional
Delta-type opioid receptor, sequence (P41143 whole entry): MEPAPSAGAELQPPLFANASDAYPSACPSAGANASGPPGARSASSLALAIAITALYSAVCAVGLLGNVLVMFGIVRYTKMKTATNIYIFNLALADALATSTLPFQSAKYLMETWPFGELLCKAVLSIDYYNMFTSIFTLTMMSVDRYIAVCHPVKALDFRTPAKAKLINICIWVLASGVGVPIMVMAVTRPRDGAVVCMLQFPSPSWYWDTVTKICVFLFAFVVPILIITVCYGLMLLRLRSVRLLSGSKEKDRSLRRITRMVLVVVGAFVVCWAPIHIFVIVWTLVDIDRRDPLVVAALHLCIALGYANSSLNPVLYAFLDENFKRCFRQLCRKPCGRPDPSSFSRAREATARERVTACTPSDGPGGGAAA

Vero [13] = test: cells; assay type: functional; settings: Chlorocebus sabaeus
[14] = Shn3 3'UTR reporter inhibitors, dose response, cell-based, Clone20 osteoblasts, firefly luciferase, cherry-picked (AID 624132); assay type: functional;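 further: firefly luciferase luminescence from reporter carrying the Shn3 3'UTR in osteoblasts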
[15] = HepG2 cell cytotoxicity, dose response, cytotoxicity control for Shn3 inhibitor project, CellTiter-Glo, cherry-picked (AID 624134); assay type: functional, cell-based
[16] = control 3'UTR Renilla luciferase suppression, dose response, counter-screen for Shn3 inhibitor project, cell-based, Clone20-Shn3RL, cherry-picked (AID 624133); assay type: functional
Paired box protein Pax-8 = Paired box protein Pax-8 (Homo sapiens, UniProt Q06710); test: inhibitors of PAX8-driven TPO luciferase reporter, dose response, RMG-I cells, cherry-pick (AID 687027); assay type: functional, cell-based;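 further: luciferase reporter driven by Pax8 target thyroperoxidase promoter measured by SteadyGlo luminescence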
Paired box protein Pax-8, sequence (Q06710 whole entry): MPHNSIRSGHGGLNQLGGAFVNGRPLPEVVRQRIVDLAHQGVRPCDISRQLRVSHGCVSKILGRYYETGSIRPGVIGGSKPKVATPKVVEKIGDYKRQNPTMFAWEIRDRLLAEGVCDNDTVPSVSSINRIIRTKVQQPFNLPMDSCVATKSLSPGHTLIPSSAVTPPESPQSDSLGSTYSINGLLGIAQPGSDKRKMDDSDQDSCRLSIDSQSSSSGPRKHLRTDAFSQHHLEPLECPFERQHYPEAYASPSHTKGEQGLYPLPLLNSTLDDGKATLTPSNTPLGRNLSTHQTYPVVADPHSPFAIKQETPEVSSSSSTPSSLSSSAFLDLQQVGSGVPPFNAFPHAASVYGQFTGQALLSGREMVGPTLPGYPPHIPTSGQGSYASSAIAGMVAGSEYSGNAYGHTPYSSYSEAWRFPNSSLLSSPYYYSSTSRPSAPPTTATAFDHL

Escherichia coli [17] = test: microbe, parasite or virus in culture
Escherichia coli [18] = test: microbe, parasite or virus in culture; remark: listed apart in the source
Vero [19] = test: cells; assay type: functional, cell-based; settings: Chlorocebus sabaeus
Hexokinase HKDC1 [20] = molecular target: T5, Hexokinase HKDC1 (Homo sapiens, UniProt Q2TB90); test: HKDC1 hexokinase inhibitors, SAR follow-up, biochemical, set 2 (AID 588355); assay type: functional
T5 sequence (Q2TB90 whole entry): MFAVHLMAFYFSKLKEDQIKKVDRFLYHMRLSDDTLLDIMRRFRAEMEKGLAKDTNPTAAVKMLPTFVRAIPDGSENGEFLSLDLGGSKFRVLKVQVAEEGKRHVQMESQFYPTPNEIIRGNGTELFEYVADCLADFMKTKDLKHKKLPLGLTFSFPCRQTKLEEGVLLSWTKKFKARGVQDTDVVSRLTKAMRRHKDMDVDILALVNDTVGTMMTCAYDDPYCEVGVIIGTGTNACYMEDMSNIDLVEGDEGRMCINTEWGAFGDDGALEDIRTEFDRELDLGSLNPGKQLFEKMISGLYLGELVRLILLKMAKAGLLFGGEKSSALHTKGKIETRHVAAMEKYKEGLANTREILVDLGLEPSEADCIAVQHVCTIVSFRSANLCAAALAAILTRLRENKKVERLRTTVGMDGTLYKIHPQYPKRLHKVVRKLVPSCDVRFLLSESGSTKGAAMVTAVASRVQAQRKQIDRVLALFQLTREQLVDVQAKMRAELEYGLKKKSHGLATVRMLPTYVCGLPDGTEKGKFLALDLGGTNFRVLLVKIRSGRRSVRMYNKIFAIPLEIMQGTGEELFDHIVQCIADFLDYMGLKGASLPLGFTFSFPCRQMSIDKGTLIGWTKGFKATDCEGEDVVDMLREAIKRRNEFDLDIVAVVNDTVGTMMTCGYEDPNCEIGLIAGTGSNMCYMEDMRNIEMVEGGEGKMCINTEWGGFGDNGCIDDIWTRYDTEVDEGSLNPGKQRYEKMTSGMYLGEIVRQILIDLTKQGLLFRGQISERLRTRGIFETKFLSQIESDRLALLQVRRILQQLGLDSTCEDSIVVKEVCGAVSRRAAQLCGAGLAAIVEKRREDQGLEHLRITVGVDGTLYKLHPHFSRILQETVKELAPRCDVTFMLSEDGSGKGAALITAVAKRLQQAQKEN

Hexokinase-1 [21] = molecular target: T6, Hexokinase-1 (Homo sapiens, UniProt P19367); test: HK1 enzyme inhibition by HKDC1 hits, SAR follow-up, selectivity assay for HKDC1 inhibitor project, biochemical, set 2, resazurin fluorescence coupled readout (AID 588356); assay type: functional
T6 sequence (P19367 whole entry, the tested form may be a part): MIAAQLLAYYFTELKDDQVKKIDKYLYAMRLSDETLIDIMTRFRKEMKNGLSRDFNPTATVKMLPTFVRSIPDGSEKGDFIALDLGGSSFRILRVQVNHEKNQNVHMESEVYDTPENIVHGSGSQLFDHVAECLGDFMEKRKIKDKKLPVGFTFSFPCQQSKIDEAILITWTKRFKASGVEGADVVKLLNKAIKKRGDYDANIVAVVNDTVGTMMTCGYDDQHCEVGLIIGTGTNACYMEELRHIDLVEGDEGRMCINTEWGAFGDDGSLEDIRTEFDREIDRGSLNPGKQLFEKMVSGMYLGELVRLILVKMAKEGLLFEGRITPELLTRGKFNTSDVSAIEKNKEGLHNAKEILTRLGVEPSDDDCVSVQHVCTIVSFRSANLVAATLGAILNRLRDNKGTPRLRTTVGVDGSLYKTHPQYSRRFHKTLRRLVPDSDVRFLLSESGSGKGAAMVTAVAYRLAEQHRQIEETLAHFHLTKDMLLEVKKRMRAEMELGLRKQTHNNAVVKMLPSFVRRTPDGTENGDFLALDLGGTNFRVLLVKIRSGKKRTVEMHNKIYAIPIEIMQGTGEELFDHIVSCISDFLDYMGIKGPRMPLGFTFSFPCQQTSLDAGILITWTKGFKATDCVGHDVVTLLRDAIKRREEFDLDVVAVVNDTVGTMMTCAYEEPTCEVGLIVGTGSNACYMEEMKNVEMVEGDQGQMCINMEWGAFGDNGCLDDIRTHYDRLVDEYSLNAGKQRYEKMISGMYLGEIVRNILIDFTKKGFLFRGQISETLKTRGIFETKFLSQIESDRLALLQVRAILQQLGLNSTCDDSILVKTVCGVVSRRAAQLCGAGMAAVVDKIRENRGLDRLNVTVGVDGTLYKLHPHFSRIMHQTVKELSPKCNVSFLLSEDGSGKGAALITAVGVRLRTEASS

Hexokinase HKDC1 [22] = molecular target: T5, Hexokinase HKDC1; test: SAR analysis of small molecule inhibitors of hexokinase domain containing I (HKDC1). [Related pubchem assays (depositor defined):AID493160, AID493190]; assay type: functional
Hexokinase-1 [23] = molecular target: T6, Hexokinase-1; test: SAR analysis of small molecule inhibitors of hexokinase domain containing I (HKDC1) in the hexokinase 1 selectivity assay. [Related pubchem assays (depositor defined):AID493160, AID493190]; assay type: functional

For `O=C1NC(=O)N(c2ccccc2)C(=O)/C1=C/C=C/c1ccco1`, the AC50 [1] was 8.29 µM (active), the AC50 (A-375 [2]) was > 35 µM (active) and the AC50 [3] was 0.449 µM (active). The IC50 (Large T antigen) was 26.5 µM (active) and the AC50 (A-375 [4]) was > 35 µM (active).

For `CCc1ccccc1NC(=O)CCS(=O)(=O)c1ccc(Br)cc1`, the EC50 [5] was 3.48 µM (active).

With `CC(C)[C@@H](C(N)=O)n1c(=O)[nH]c(=O)n(-c2ccc(Cl)cc2)c1=O` the IC50 [6] was > 100 µM (inactive), the IC50 [7] was > 100 µM (not active) and the IC50 [8] was > 100 µM (not active). For the same compound, the IC50 [9] was > 100 µM (inactive).

With `CN(C)C(CN=C(S)Nc1cccc(Cl)c1)c1cccnc1` (stereo unspecified) the EC50 [10] was 0.0133 µM (active), the EC50 (Mu-type opioid receptor) was 7.49 µM (active) and the EC50 [11] was > 92.5 µM (inactive). For the same compound, the EC50 [12] was 20.5 µM (inactive).

In the case of `CC(N)C(=O)NC1C2C(=C(O)OC1(C)C(Cl)Cl)C(=O)CC(O)C2O` (stereo unspecified), the CC50 (Vero [13]) is reported as 3.08 µM (active), the AC50 [14] is reported as 1.85 µM (active) and the AC50 [15] is reported as > 70 µM (inactive). The AC50 [16] was 2.03 µM (active), the AC50 (Paired box protein Pax-8) was 0.546 µM (active) and the AC50 (Escherichia coli [17]) was 113 µM (active). The AC50 (Escherichia coli [18]) was 20.8 µM (active) and the IC50 (Vero [19]) was > 25 µM (active).

For `Cc1ccccc1N1C(=O)c2ccccc2C1Nc1ccc(Br)cc1` (stereo unspecified), the IC50 (Hexokinase HKDC1 [20]) was > 80 µM (inactive) and the IC50 (Hexokinase-1 [21]) was > 80 µM (inactive).

For `N#Cc1ccc(CSc2nnc(NC(=O)c3ccc4ccccc4n3)s2)cc1`, the IC50 (Hexokinase HKDC1 [22]) was > 80 µM (inactive) and the IC50 (Hexokinase-1 [23]) was > 80 µM (inactive).
